# Results reported in patent US7390508B2, “Use of xenon with hypothermia for treating neonatal asphyxia” (Protexeon Limited, priority 2003, dated 2008).
# Values joined by “and” are separate entries in the source; they are usually repeats but may differ in a detail not shown here. Equal entries are not always repeated.
# Legend:
# [1] = xenon dissolved or dispersed in lipid emulsion; type: physicochemical; settings: 20° C. and normal pressure
# Experimental: It has been established that appreciable amounts of xenon maybe added to a lipid emulsion. Even by the simplest means, at 20° C. and normal pressure, xenon can be dissolved or dispersed in concentrations of 0.2 to 10 ml or more per ml of emulsion. The concentration of dissolved gas is dependent on a number of factors, including temperature, pressure and the concentration of lipid.
# [2] = test system: p7 Sprague-Dawley rat pups; test: 7-day-old rat model of focal HI, treatment 4 h post-insult, cresyl violet histology of apoptotic, necrotic and viable cells (Example 2); type: in vivo
# Description: p7 Sprague-Dawley rat pups (weighing between 10 and 14 g) from Harlan, U.K. were subjected to a previously described model of HI injury (Levine, 1960; Rice et al, 1981). In brief, rat pups were anaesthetised with 2% isoflurane before undergoing permanent unilateral ligation of the right common carotid artery, using a midline neck incision and 5.0 silk suture. Once surgery was complete, pups recovered from the anaesthesia and were then returned to the dam until the time of experimentation.
# 1 hr after surgery, pups were exposed to hypoxia by placing them into purpose-built, airtight chambers that were partially submerged in a 37° C. water bath (FIG. 9). […] Hypoxia was induced by a continuous flow of humidified 8% oxygen, balanced with nitrogen, and this mixture was monitored every 15 minutes by a Datex Ohmeda (Bradford, U.K.). (All gases were supplied by BOC.)
# Following HI, pups were returned to the dam for 4 hrs to recover, after which time they were subjected to 90 minutes of one of the experimental interventions below. […] No significant difference existed between the two time periods and thus 4 h post-insult was chosen as the time to apply the intervention, as it was thought to be the most clinically relevant.
# Pups were returned to their mothers until sacrifice at 16, 24 and 48 h following treatment (Northington et al, 2001) (FIG. 10).
# The same experimental paradigm was followed for treatment with xenon, but instead of hypothermia, the water bath was maintained at 37° C. and the gas mixture was changed to 25% oxygen and 75% xenon for 90 minutes. Gas was delivered into a purpose-built, closed system to minimise xenon leakage (FIG. 9). Once again, the pups were returned to their mothers until sacrifice.
# In the combination paradigm, the rats underwent both hypothermia and xenon concurrently for 90 minutes. Again, the pups were placed in airtight chambers, but on this occasion, their temperatures were maintained at 35° C. and the gas mixture consisted of 25% oxygen, only 20% xenon and balanced nitrogen. This temperature and xenon concentration was shown in preliminary experiments, to confer no neuroprotective benefit to the developing brain when used independently. Thus, by using these values, any neuroprotective benefit at all is indicative of synergy between the two agents. Following treatment, pups were returned to their mothers until sacrifice.
# Neuronal injury was assessed by histological analysis of paraffin brain slices stained with cresyl violet. Cresyl violet is a basic stain that binds to acidic components of neuronal cytoplasm such as RNA-rich ribosomes, and also the nuclei and nucleoli of nerve cells.
# Each experimental group consisted of three time groups (16, 24, 48 h), and each time group contained three animals, (thus there were nine animals in total for each experimental group). Three slides per animal were chosen from the area of the brain that was −3.6 mm from the bregma (FIG. 11). Slides were then sorted into time groups and the examiner was blinded to the intervention.
# Two areas from the ipsilateral side of each brain were analysed using a BX60 light microscope (Olympus, Southall, U.K.)—one in the cortex and one in the gyrus of the hippocampus (FIG. 11). A 40× objective lens with a grid was used to count the total number of cells that appeared in the grid. Cells were scored as either viable, apoptotic, or necrotic based on their morphological appearance, and the percentage of each cell type was noted down for each of the brain areas. An Axiocam digital camera (Zeiss, Göttingen, Germany) was used along with the microscope to take photomicrographs of the brain slices.
# The criteria for assigning cells to each category was as follows (FIG. 12): • 1. Cells undergoing either type of cell death (apoptosis or necrosis) took up the cresyl violet stain more intensely than viable cells, which were regularly shaped with pale cytoplasm, and a clearly visible, darker nucleus. • 2. […]
# [3] = test system: Seven day old postnatal Sprague-Dawley rats; test: Neonatal asphyxia model, xenon during or 2 h after hypoxia (Example 1); type: in vivo, rat
# Experimental: Seven day old postnatal Sprague-Dawley rats underwent right common carotid artery ligation under surgical anaesthesia (1%-1.5% isoflurane in pure oxygen). After ligation, the animals were returned to their mothers and placed in a specially designed area with constant of room temperature (23° C.) and humidity (48%). One hour after surgery, neonatal rats were placed in specially designed chamber with 8% oxygen combined with 0, 20, 40, 60 or 70% Xenon (with nitrogen making up the balance) for 90 min at 37° C. (temperature kept by water bath running outside chambers). At post-experimental day 7, rats (14 day old) were killed and their brains removed. The ratio of right hemisphere weight against left (R/L ratio) was calculated. Rat pups in some groups were allowed to live up to 30 days of postnatal age, at which time their neuromotor function and co-ordination were assessed with established protocols (Neuromotor testing and Rotarod testing).
# The concentration-dependence of xenon neuroprotection (ratio right hemisphere weight/left against xenon concentration) is shown in FIG. 4. […] Control animals were subjected to carotid ligation but no hypoxia was given. Results are mean±SEM (n=5−8). * P<0.01 vs 8% O2.
# At postnatal day 7 the right carotid artery was ligated and rat pups were exposed to a hypoxic environment (8% oxygen+70% xe and balance with nitrogen) for 90 min. Thirty days after the insult, rats were evaluated for neuromotor function (A) using a panel that included assays of prehensile traction, strength, and balance beam performance (graded on a 0-9 scale) and (B) balance on a Rotarod, a standard test of balance and neuromotor function. The data point from an individual rat is the sum of three tests. The horizontal bars indicate the median for each group.
# The neuroprotective effect (ratio of right hemisphere/left) observed with N2 and xenon respectively is shown in FIG. 6, when xenon is administered 2 hours post HI insult. […]
# neuronal cultures = test: oxygen-glucose deprivation (OGD)-induced lactate dehydrogenase (LDH) release in neuronal cultures; type: cell-based; settings: for ED50 for xenon, OGD-induced LDH release: 75 minutes OGD, 6 hours of recovery, xenon concentration % atm, mean +/- SEM
# Experimental: The effect of mild hypothermia on the neuroprotective effect of xenon (LDH release against xenon concentration, % atm) is shown in FIG. 7. […] Cooling by 4 degrees greatly enhances the potency of xenon in blocking LDH release. […] (red), or at 33° C. (blue). […] Neuronal injury is expressed as a percentage of the maximal LDH release after 75 minutes of OGD and 6 hours of recovery in the absence of either xenon or hypothermia. Points represent mean values, with error bars indicating standard errors.
# From the slope of such a plot the enthalpy change of the process can be calculated, its size being a measure of the temperature dependence. The data in red show the effect of temperature on LDH release in the absence of xenon. The reduction of release as the temperature is reduced is expected but modest. […] Hypothermia therefore appears to greatly enhance the neuroprotective effects of xenon.
# [4] = 20% xenon alone, 37° C., cortex, 16 h, mean±SD (n=3)
# [5] = 75% xenon, 37° C., 90 min, cortex, 16 h, mean±SD (n=3)
# [6] = 75% xenon, 37° C., 90 min, gyrus, 16 h, mean±SD (n=3)
# [7] = combination 20% xenon + 35° C. hypothermia, cortex, 16 h, mean±SD (n=3)
smiles,measurement,setting,value
[Xe] [xenon],concentration of xenon dissolved or dispersed in lipid emulsion,[1],0.2 to 10 ml per ml of emulsion
same,neuroprotection,"[2]; 20% xenon alone, 37° C.",no neuroprotective effect
same,percentage of apoptosis,[2]; [4],36%±5.7% and 35.8%±5.7%
same,percentage of viability,[2]; [4],51%±7.8%
same,apoptosis (percentage of total cell number),[2]; [5],8.5%±1.6%
same,viable cell count (percentage of total cell number),[2]; [5],80.6%±0.2%
same,apoptosis (percentage of total cell number),[2]; [6],13.9%±2.4%
same,viable cell count (percentage of total cell number),[2]; [6],77.1%±3.3%
same,anti-necrosis,"[2]; 75% xenon, 16 and 24 h groups",not anti-necrotic
same,anti-apoptosis compared to positive control animals,"[2]; 75% xenon, 24 and 48 h groups, cortex and gyrus",statistically significant anti-apoptosis
same,percentage of viable cells vs. positive controls,"[2]; 75% xenon, 24 h, cortex and gyrus",significant increase in the percentage of viable cells
same,necrosis (percentage of total cell number),"[2]; 75% xenon, cortex, 48 h, mean±SD (n=3)",10.7%±0.4%
same,anti-necrosis,"[2]; 75% xenon, gyrus, 48 h",not however anti-necrotic
same,neuroprotection,"[2]; combination 20% xenon + 35° C. hypothermia, both areas of the brain, 16, 24 and 48 h",profound synergistic neuroprotection
same,apoptosis (percentage of total cell number),[2]; [7],7.2%±2%
same,viable cells (percentage of total cell number),[2]; [7],82.3%±4.9%
same,type of protection,"[2]; combination 20% xenon + 35° C. hypothermia, gyrus, 24 h",anti-necrotic as well as anti-apoptotic protection
same,concentration-dependence of xenon neuroprotection (ratio right hemisphere weight/left),"[3]; 0, 20, 40, 60 or 70% xenon with 8% oxygen for 90 min at 37° C., brains at 14 days",Neuroprotection is evident even at sub-anaesthetic concentrations
same,neuroprotective effect (ratio of right hemisphere/left),"[3]; 70% Xe+30% O2 for 90 min, given 2 hours after the end of the hypoxic period",effective in providing neuroprotection
same,gross anatomical appearance of brain slices,[3]; 70% xenon breathed during the 90 min hypoxic period,look close to normal
same,temperature dependence of LDH release (van't Hoff plot),neuronal cultures; 12.5% xenon present,very large and unexpected
same,"ED50 for xenon, OGD-induced LDH release",neuronal cultures; 33° C.,11.5+/−2.0%
same,"ED50 for xenon, OGD-induced LDH release",neuronal cultures; 37° C.,35.9+/−2.15%
